How the values were obtained:
Type in all cases: in vivo
[1] = test system: bFGF-induced angiogenesis; assay: chick CAM assay, bFGF-induced angiogenesis, intravenous inhibitors
Experimental: (§1) Ten day old chick embryos were obtained from McIntyre Poultry (Lakeside, Calif.) and incubated at 37C with 60% humidity. A small hole was made through the shell at the end of the egg directly over the air sac with the use of a small crafts drill (Dremel, Division of Emerson Electric Co., Racine, Wis.). A second hole was drilled on the broad side of the egg in a region devoid of embryonic blood vessels determined previously by candling the egg. […] A 1.0 centimeter (cm)×1.0 cm square window was cut through the shell over the dropped CAM with the use of a small model grinding wheel (Dremel). The small window allowed direct access to the underlying CAM.
(§2) Angiogenesis was induced by placing a 5 millimeter (mm)×5 mm Whatman filter disk (Whatman Filter paper No. 1) saturated with Hanks Balanced Salt Solution (HBSS, GIBCO, Grand Island, N.Y.) or HBSS containing preselected cytokines at a preselected concentration, i.e. one to test the effect on angiogenesis, on the CAM of a 10 day chick embryo in a region devoid of blood vessels and the windows were later sealed with tape. Angiogenesis was monitored by photomicroscopy after 72 hours. CAMs were snap frozen then 6 μm cryostat sections were fixed with acetone and stained by immunofluorescence as described in Example 2B and 2C with 10 μg/ml of selected anti-integrin antibodies, including those directed against αvβ5 as described in Example 1.
(§3) Angiogenesis was first induced on 10 day old chick embryos by application of growth factor-saturated filter disks. Specifically, in the first assays, angiogenesis was induced by exposure to either bFGF or VEGF, each at a concentration of 150 ng/ml.
(§4) For application of growth factors, during the candling procedures, prominent blood vessels were selected and marks were made on the egg shell to indicate their positions. The holes were drilled in the shell, the CAMs were dropped and growth factor-saturated filter papers were then separately placed on the CAMs as described above. The windows were sealed with sterile tape and the embryos were replaced in the incubator.
(§5) Twenty four hours later, a second small window was carefully cut on the lateral side of the egg shell directly over prominent blood vessels selected previously. The outer egg shell was carefully removed leaving the embryonic membranes intact. The shell membrane was made transparent with a small drop of mineral oil (Perkin-Elmer Corp, Norwalk, Conn.) which allowed the blood vessels to be visualized easily. Then, phosphate buffered saline (PBS), 75 μg of purified sterile anti-integrin antibodies or 75 μg of synthetic peptides (cyclic peptide RGDfV, SEQ ID NO 4 and control cyclic peptide RADfV, SEQ ID NO 5) in PBS were injected into blood vessels apparent on the growth factor-induced CAMs. The windows were sealed with tape and the embryos were allowed to incubate until 72 hours.
The filter discs and representative surrounding CAM tissues were photographed in a stereomicroscope (FIGS. 3A–3F and FIGS. 5A–5F) and the mean angiogenic index +/− the standard error was determined for 12 CAMs per condition (FIGS. 4A–4B and FIGS. 6A–6B). Angiogenesis was scored for each embryo in a double blind manner by analyzing the number and extent of branching of blood vessels within the area of each disc. The scores ranged from 1 (low) to 4 (high) and the angiogenesis index was determined by subtracting a background of 1 from all data. […]

[2] = test system: VEGF-induced angiogenesis; assay: chick CAM assay, VEGF-induced angiogenesis, intravenous inhibitors
Experimental: as §1, §2, §3, §4, §5
The filter discs and representative surrounding CAM tissues were photographed in a stereomicroscope (FIGS. 3A–3F and FIGS. 5A–5F) and the mean angiogenic index +/− the standard error was determined for 12 CAMs per condition (FIGS. 4A–4B and FIGS. 6A–6B). Angiogenesis was scored for each embryo in a double blind manner by analyzing the number and extent of branching of blood vessels within the area of each disc. The scores ranged from 1 (low) to 4 (high) and the angiogenesis index was determined by subtracting a background of 1 from all data.
In a further assay performed in the CAM model having VEGF-induced angiogenesis, 2 μg of peptides 85189 (SEQ ID NO 9) and the inert salt counterpart 121974 were separately intravenously injected as previously described. The effect of the peptides was assessed in comparison to that of control peptide 69601 (SEQ ID NO 5) and to untreated (labeled as NT) preparations.
The effect of the peptides of VEGF-induced angiogenesis is measured through a determination of the number of blood vessel branch points. […]

retinal vasculogenesis = assay: newborn mouse model of retinal angiogenesis
Experimental: For the model, newborn mice were injected subcutaneously twice daily for four days starting from day 0 with the cyclic peptide RGDfV (SEQ ID NO 4) (also referred to as peptide 203) or the control peptide RADfV (SEQ ID NO 5). On postnatal day five, globes were removed and fixed in 4.0% paraformaldehyde (PFA) at room temperature.
To quantitate mouse retinal angiogenesis, the distance from the optic nerve head to the most distal point of a single vessel selected in each of six equal sectors around a twelve hour clock was measured. The mean distance was calculated and averaged with similar data obtained from an entire litter. To measure the total volume of retinal blood vessels, the entire specimen was scanned in 2.0 μm optical sections and stored digitally. The “seed” function in Bio-Rad's Lasersharp software was then used to threshold and count cubic pixels in each section. A macro was written to sum the volume of all sections and determine the value for all vascular structures.

[3] = test system: TNF-α mediated angiogenesis; assay: chick CAM assay, TNF-α-induced angiogenesis; conditions: TNF-α 1.0 μg/ml; antibodies 75 μg per embryo, calphostin C 100 nM
Experimental: (§6) The above growth factors (cytokines), including bFGF and VEGF, were separately applied at a concentration of 1.0 μg/ml to the 10 day old CAM model as previously described. PMA was used at a concentration of 20 ng/ml.
(§7) After 24 hours after growth factor treatment, the antibodies, LM609 and P1F6, or the protein kinase C (PKC) inhibitor, calphostin C, were separately provided to the CAM model, either by a single intravascular dose as described above or by topical administration as described below in the next example. For intravascular injections over the next 3 day consecutive period, the antibodies were used at a concentration of 75 μg per embryo and the calphostin C was at a dosage of 100 nM.
(§8) On day 13, filter discs and associated CAM tissue were dissected and analyzed for angiogenesis with a stereo microscope. Angiogenesis was scored in a double blind manner by analyzing the number and extent of branching of the blood vessels within the area of the discs. The scores ranged from low (1) to high (4). The angiogenesis index was determined by subtracting a background score of 1 from all data. Experiments were repeated 2–4 times with 5–6 embryos per condition.

[4] = test system: angiogenesis induced by TGF-α; assay: chick CAM assay, TGF-α-induced angiogenesis; conditions: TGF-α 1.0 μg/ml; antibodies 75 μg per embryo, calphostin C 100 nM
Experimental: as §6, §7, §8

[5] = test system: angiogenesis induced by PMA; assay: chick CAM assay, PMA-induced angiogenesis; conditions: PMA 20 ng/ml; antibodies 75 μg per embryo, calphostin C 100 nM
Experimental: as §6, §7, §8

Substance | inhibition of bFGF-induced CAM angiogenesis ([1]; bFGF 150 ng/ml, 75 μg antibody or peptide intravenously, 72 hours) | inhibition of VEGF-induced CAM angiogenesis ([2]; VEGF 150 ng/ml, 75 μg antibody or peptide intravenously, 72 hours) | volume of retinal blood vessels compared with untreated newborn mice (retinal vasculogenesis; five-day old treated animals) | inhibition of retinal vasculogenesis compared to untreated counterparts (retinal vasculogenesis; newborn mice, s.c. twice daily for four days) | mean volume of retinal vessels (retinal vasculogenesis; postnatal day five) | inhibition of retinal vasculogenesis relative to control peptide (vessel growth in two dimensions) (retinal vasculogenesis; s.c. twice daily for four days from day 0, postnatal day five, N=9) | reduction in retinal vascular volume compared to controls (retinal vasculogenesis; three dimensional analysis, postnatal day five) | difference in vessel growth between untreated newborn mice and treated five-day old mice (retinal vasculogenesis; two dimensions) | effect on CAM angiogenesis in response to bFGF (angiogenesis index) ([1]; bFGF 1.0 μg/ml, antibodies 75 μg per embryo, calphostin C 100 nM) | effect on CAM angiogenesis induced by VEGF (angiogenesis index) ([2]; VEGF 1.0 μg/ml, antibodies 75 μg per embryo, calphostin C 100 nM) | effect on CAM angiogenesis in response to TNF-α (angiogenesis index) [3] | effect on CAM angiogenesis induced by TGF-α (angiogenesis index) [4] | effect on CAM angiogenesis induced by PMA (angiogenesis index) [5]
cyclo(Arg-Gly-Asp-D-Phe-Val) [compound 66203] | abolished angiogenesis | abolished angiogenesis | indistinguishable | ~100% | 3.6×10^6 μm^3 | 44% | 78% | No statistical difference |  |  |  |  | 
calphostin C [reference compound] |  |  |  |  |  |  |  |  | minimal effects | blocked angiogenesis | minimal effects | blocked angiogenesis | blocked angiogenesis

From patent US7053041B1, “Methods and compositions useful for inhibition of αvβ5mediated angiogenesis” (The Scripps Research Institute, priority 1996, dated 2006)
